# Tested on: activated CD8+T-cells (ATC)
# Assay: Activated T-cell (ATC) migration induced by individual chemokines, inhibition by peptide
# Format: cell-based, human
# Conditions: for inhibition of CCL19, CCL21, CXCL9, and CXCL11-induced migration of ATCs compared to parental HD2: peptide 10 uM, chemokines at EC80, Dunnett's test
# Method: Cell lines were confirmed mycoplasma free by monthly testing using a MycoAlert^TM kit (LT07-118, Lonza) following the manufacturer’s instructions. THP1 cells: THP1 cells (ECACC 88081201, a human monocyte leukemia cell line[51]) were obtained from ECACC and were cultured in T175 flasks at 0.3-1 × 10^6 cells/mL in Roswell Park Memorial Institute (RPMI) 1640 medium (R0883, Sigma) with 10% FBS (F9665, Sigma) and 5mM L-glutamine (G7513, Sigma), 37 °C, 5% CO2. J:CXCR1 cells: The J:CXCR1 cell line was cultured in the same manner as THP1 cells at 0.15-1 × 10^6 cells per mL[37]. Activated T-cells: T-cells were isolated, activated and expanded as follows. Briefly, density gradient centrifugation using Lymphoprep^TM density gradient medium (07801, […] Technologies) and a SepMate^TM isolation tube (85450, […] Technologies) was used to isolate peripheral blood mononuclear cells from human leukocyte cones. Two rounds of purification using a human CD8 + T-cell isolation kit (480011, BioLegend) were used to isolate CD8 + T-cells from peripheral blood mononuclear cells. Activation of CD8 + T-cells was performed in ImmunoCult^TM-XF T-cell expansion medium (10982, […] Technologies) with an anti-CD3/anti-CD28 T-cell activator at 25 μl/ml (10991, […] Technologies), supplemented with 10 ng/ml recombinant human IL-2 (200-02, PeproTech) with 1% penicillin/streptomycin. T-cells were passaged every 2–3 days in TexMACS medium (130-097-196, Miltenyi Biotec), supplemented with 10 ng/ml human IL-2 (200-05-250, Peprotech) and incubated at 37 °C in 5% CO2. CD8 + T-cells were frozen at day 10-13 after initial activation, at 20×10^6 cell/ml in TexMACS medium supplemented with 10% DMSO (D2650, Sigma) in liquid nitrogen. Activated CD8^+ T-cells were recovered in TexMACs medium at 0.3 × 10^6 cell/ml and incubated at 37 °C in 5% CO2, 24 h prior to use. For buffy coat experiments a mixture of primary human monocytes, granulocytes and lymphocytes was isolated from human buffy coat. Briefly, RBCs were sedimented in HetaSep (07806, […] Technologies) with 1 mL of HetaSep per 5 mL of blood for 15 min at 37 °C. The buffy coat layer was collected from the top and washed in 50 ml MACS buffer (PBS (P4417, Sigma), 0.5% BSA (A7030, Sigma), 0.075% EDTA (E5134, Sigma), pH 7.2), by centrifugation at 2000 g for 10 min at room temperature. The pellet was resuspended in 10 mL of 1x RBC lysis solution (130-094-183, Miltenyi Biotec) and lysed for 10 min at room temperature. The cells were then washed in MACS buffer twice as above. The final pellet was resuspended in 1 mL of MACS buffer per 5 mL of initial blood volume and counted using cell size FSC-H/SSC-H parameters with gate settings previously defined by immunostaining (see below). The leukocytes were then resuspended in assay buffer for cell migration and used within 30 min of isolation.
# Cell counts were determined using an ATTUNE NxT Flow Cytometer with Cytkick autosampler (ThermoFisher), based on cell size parameters FSC-H/SSC-H, with previously defined gate settings. FSC-H/SSC-H gate settings for primary white blood cells from buffy coats were determined using flow cytometry to establish the granulocyte, monocyte and lymphocyte populations (Supplementary Fig. 13). Briefly, cells were labelled with anti-CD3 (Miltenyi Biotec, 130-113-135) to identify the T cell population, anti-CD14 (Miltenyi Biotec, 130-110-578) to identify the monocyte population, and with anti-CD16 (Miltenyi Biotec, 130-113-951) to identify the granulocyte population. Negative control cells were labelled with anti-human IgG1 (Miltenyi Biotec, 130-113-434). All antibodies were allophycocyanin (APC) conjugated. 100,000 white blood cells were added to Eppendorf tubes and centrifuged at 300 g for 3 min. The supernatant was discarded, and the cells resuspended in 98 µL of MACS buffer (1× PBS, 2 mM EDTA and 0.5% BSA, sterile filtered). 2 µl of antibody was added to the cells. […]
Sequence,"inhibition of CCL19, CCL21, CXCL9, and CXCL11-induced migration of ATCs compared to parental HD2","inhibition of chemokines e.g. CCL19, CCL21 and CXCL11 (ATC migration, statement of the discussion)"
"EEDDYWAYAPLTCYFT [HD2T6W, HD2 point mutant]",significant improvement in inhibition,–
"EEDDWTAYAPLTCYFT [HD2Y5W, HD2 point mutant]",significant improvement in inhibition,de novo inhibition

# Source: article PMC11969024, “Development of chemokine network inhibitors using combinatorial saturation mutagenesis” (Communications Biology, 2025)
